According to PMC2721901 (Molecular cell, 2009):

Tests used:
Format in all cases: biochemical
ISW2 [1] = biological target: T1, ISW2 (Saccharomyces cerevisiae, UniProt Q08773); experiment: competitive inhibitor assay against ATP; details: competitive with ATP at active site
ISW2 [2] = biological target: T1, ISW2; experiment: nucleosome mobilization, native gel shift; details: 70N0 nucleosomes, 90 or 800 µM ATP, 5 mM MgCl2, pH 7.6, 20°C
ISW1a = ISW1a (Saccharomyces cerevisiae, UniProt P38144); experiment: nucleosome mobilization, native gel shift; details: 70N0 nucleosomes, 90 or 800 µM ATP, 5 mM MgCl2, pH 7.6, 20°C
Chain of ISW1a (P38144 whole entry): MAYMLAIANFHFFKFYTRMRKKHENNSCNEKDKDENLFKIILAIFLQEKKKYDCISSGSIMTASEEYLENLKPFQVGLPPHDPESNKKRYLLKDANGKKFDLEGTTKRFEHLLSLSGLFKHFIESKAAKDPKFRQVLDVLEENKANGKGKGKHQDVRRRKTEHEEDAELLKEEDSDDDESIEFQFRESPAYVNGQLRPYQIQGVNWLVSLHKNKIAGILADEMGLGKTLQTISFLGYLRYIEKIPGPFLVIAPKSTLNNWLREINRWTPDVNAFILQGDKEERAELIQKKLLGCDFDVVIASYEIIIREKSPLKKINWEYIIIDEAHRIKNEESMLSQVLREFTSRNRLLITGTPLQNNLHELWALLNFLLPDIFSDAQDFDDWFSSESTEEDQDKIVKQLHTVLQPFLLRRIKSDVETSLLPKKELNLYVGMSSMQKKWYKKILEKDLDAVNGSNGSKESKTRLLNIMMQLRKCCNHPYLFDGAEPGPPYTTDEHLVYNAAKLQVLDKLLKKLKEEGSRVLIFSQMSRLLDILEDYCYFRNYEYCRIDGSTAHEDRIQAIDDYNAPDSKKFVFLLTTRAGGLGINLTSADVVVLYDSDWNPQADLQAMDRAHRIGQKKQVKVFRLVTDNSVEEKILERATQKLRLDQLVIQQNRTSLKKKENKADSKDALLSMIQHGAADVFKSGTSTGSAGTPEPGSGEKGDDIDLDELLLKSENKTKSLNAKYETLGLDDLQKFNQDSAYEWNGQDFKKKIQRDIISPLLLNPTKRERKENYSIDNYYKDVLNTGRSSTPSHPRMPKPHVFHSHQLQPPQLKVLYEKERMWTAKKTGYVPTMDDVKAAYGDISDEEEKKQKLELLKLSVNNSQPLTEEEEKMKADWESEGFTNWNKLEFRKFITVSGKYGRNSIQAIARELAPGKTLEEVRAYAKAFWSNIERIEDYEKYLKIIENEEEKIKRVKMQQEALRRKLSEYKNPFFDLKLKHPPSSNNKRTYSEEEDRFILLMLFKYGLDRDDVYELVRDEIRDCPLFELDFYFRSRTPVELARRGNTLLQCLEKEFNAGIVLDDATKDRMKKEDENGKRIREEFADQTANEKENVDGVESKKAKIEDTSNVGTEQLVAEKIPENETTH
Chain of ISW1a (P43596 whole entry partner): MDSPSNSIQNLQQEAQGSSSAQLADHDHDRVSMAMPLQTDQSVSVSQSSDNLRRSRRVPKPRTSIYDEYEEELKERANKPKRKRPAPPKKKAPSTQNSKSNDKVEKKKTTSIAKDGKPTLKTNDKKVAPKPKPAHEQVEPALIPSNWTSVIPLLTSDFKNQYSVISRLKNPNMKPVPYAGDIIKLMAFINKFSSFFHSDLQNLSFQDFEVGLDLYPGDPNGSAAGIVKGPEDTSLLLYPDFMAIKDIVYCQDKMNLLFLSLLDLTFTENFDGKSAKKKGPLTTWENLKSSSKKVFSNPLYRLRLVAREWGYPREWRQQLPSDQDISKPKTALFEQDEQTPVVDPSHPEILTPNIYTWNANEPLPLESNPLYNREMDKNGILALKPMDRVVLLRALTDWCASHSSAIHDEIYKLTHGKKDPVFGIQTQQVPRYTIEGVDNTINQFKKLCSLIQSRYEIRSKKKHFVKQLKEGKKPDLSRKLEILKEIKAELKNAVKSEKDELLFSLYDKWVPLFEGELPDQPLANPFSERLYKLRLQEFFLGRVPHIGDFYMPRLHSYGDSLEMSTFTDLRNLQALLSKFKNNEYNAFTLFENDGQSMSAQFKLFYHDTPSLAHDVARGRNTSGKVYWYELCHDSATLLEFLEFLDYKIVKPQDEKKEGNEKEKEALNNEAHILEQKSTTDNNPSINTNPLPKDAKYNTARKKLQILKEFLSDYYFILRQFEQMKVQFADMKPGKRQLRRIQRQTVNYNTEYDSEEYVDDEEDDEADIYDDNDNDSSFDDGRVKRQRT

T1 sequence (Q08773 whole entry): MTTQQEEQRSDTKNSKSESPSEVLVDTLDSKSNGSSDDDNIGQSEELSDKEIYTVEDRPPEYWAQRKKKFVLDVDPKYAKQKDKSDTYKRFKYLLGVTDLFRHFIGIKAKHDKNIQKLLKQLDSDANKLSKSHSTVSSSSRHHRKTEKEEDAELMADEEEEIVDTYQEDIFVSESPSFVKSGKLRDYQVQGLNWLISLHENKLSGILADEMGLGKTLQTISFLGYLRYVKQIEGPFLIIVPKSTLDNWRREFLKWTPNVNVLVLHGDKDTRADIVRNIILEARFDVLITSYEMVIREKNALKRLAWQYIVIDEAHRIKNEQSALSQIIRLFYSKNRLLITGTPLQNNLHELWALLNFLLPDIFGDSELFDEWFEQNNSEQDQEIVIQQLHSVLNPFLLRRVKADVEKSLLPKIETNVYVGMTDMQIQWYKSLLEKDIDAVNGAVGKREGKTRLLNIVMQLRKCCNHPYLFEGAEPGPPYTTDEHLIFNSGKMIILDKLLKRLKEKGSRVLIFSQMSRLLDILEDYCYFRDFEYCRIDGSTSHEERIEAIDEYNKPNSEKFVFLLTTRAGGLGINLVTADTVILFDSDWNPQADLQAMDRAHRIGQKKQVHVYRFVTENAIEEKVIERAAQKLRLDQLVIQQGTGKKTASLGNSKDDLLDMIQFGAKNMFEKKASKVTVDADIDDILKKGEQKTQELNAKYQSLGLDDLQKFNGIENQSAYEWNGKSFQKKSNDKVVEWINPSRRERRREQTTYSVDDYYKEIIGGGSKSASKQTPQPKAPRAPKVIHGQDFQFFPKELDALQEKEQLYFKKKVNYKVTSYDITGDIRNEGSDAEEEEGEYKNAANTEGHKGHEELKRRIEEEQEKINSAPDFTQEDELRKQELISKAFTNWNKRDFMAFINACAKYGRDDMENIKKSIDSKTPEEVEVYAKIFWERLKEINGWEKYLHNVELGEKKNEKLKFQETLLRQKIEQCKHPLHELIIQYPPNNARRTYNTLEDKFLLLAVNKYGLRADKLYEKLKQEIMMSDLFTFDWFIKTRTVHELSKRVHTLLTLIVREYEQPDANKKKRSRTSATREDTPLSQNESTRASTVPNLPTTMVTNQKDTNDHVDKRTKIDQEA
T1 sequence (P53125 whole entry partner): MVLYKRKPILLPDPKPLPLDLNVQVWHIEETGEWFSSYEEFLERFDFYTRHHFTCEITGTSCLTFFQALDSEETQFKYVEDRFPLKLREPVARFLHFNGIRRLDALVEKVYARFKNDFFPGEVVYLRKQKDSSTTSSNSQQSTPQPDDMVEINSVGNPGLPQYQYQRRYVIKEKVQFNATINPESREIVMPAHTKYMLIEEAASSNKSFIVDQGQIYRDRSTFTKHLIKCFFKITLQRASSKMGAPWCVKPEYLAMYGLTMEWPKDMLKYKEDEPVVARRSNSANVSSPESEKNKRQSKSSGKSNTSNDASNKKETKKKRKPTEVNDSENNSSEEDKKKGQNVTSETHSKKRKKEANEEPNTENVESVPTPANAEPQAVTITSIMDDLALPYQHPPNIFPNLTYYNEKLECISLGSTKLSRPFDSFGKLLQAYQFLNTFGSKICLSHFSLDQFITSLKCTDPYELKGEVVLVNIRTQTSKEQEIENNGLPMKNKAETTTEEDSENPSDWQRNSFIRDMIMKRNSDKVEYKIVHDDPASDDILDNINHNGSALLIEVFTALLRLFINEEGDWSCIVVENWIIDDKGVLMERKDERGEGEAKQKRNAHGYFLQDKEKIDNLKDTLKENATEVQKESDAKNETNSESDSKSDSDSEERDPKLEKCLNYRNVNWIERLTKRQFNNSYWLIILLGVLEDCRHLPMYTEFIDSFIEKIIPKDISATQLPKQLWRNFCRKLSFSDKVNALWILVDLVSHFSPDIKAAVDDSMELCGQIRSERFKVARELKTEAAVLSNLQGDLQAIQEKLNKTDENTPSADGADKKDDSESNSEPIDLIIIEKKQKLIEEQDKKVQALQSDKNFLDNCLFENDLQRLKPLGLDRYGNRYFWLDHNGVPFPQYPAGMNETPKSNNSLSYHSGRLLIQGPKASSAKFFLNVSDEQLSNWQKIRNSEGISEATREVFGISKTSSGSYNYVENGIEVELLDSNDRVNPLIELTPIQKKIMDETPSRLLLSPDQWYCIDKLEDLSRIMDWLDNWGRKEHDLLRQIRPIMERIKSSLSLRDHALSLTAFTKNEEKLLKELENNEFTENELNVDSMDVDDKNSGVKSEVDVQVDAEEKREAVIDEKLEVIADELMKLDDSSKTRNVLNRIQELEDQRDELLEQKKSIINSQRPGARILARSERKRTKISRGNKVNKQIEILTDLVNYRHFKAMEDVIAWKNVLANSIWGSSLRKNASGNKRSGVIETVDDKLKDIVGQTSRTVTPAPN
T1 sequence (Q04603 whole entry partner): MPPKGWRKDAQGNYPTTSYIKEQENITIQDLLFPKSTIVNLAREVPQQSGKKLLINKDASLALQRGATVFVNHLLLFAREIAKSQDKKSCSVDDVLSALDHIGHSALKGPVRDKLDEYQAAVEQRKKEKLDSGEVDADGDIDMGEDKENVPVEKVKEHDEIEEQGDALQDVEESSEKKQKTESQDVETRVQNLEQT
T1 sequence (P40366 whole entry partner): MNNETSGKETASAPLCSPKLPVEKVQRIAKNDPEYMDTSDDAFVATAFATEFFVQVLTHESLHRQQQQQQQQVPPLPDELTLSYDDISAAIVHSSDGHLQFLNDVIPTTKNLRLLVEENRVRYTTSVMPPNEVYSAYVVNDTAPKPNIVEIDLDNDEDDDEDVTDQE

SMILES	competitive inhibitor assay against ATP (ISW2 [1])	nucleosome mobilization, native gel shift (ISW2 [2])	nucleosome mobilization, native gel shift (ISW1a)
Nc1ncnc2c1ncn2[C@@H]1O[C@H](COP(=O)(O)OP(=O)(O)O)[C@@H](O)[C@H]1O [ADP]	ADP and γ-S-ATP were shown to be bound at the active site of ISW2		
Nc1ncnc2c1ncn2[C@@H]1O[C@H](COP(=O)(O)OP(=O)(O)OP(=O)(O)O)[C@@H](O)[C@H]1O [ATP]		Template commitment of ISW2 required initiation of the remodeling process rather than just ISW2 binding	ATP was found to be required for template commitment by ISW1a
